Here are results for one compound from patent publication US10774080B2, “Pyrimidine compound as JAK kinase inhibitor” (THERAVANCE BIOPHARMA R&D IP, LLC, priority 2017, dated 2020).

One series is described as follows: in vitro. Type of series: in vitro ADME. The conditions noted are these: human, microsomes. As to the method: Assay 17: Human Liver Microsome Assay The objective of this assay was to assess the metabolic stability of test compounds in an in vitro human liver sub-fraction. Human liver microsomes obtained from Bioreclamation-IVT (Baltimore, Md.) were thawed on ice and diluted into 0.1M potassium phosphate buffer pH 7.4 to yield final incubation protein concentrations of 0.1 mg/mL. […] Incubations were conducted at 37° C. temperature and test aliquots were taken at time points 0, 5, 8, 15, 30 and 45 minutes. […] The resulting samples were injected onto an LC-MS/MS system for analysis. For each incubation, the peak area of the analytes in each t0 aliquot was set to 100% and the peak areas from subsequent time point aliquots were converted to percentage of parent compound remaining relative to t0. The percentage of parent compound remaining was converted to natural log scale and plotted versus time in minutes. A linear regression analysis was performed for the initial decline of the parent disappearance profile and a formula for the best-fit line determined. The slope of the resultant line was normalized to protein concentration in mg/mL protein or number of cells/mL and CLint was calculated as follows for liver microsomes: CLint (μL·min^−1·mg^−1)=(Slope×1000)/[protein,mg/mL]

The target in a further series is T1, JAK3 (Homo sapiens, UniProt P52333).
T1 construct: GST; purchased Life Technologies
T1 sequence (P52333 1-1124): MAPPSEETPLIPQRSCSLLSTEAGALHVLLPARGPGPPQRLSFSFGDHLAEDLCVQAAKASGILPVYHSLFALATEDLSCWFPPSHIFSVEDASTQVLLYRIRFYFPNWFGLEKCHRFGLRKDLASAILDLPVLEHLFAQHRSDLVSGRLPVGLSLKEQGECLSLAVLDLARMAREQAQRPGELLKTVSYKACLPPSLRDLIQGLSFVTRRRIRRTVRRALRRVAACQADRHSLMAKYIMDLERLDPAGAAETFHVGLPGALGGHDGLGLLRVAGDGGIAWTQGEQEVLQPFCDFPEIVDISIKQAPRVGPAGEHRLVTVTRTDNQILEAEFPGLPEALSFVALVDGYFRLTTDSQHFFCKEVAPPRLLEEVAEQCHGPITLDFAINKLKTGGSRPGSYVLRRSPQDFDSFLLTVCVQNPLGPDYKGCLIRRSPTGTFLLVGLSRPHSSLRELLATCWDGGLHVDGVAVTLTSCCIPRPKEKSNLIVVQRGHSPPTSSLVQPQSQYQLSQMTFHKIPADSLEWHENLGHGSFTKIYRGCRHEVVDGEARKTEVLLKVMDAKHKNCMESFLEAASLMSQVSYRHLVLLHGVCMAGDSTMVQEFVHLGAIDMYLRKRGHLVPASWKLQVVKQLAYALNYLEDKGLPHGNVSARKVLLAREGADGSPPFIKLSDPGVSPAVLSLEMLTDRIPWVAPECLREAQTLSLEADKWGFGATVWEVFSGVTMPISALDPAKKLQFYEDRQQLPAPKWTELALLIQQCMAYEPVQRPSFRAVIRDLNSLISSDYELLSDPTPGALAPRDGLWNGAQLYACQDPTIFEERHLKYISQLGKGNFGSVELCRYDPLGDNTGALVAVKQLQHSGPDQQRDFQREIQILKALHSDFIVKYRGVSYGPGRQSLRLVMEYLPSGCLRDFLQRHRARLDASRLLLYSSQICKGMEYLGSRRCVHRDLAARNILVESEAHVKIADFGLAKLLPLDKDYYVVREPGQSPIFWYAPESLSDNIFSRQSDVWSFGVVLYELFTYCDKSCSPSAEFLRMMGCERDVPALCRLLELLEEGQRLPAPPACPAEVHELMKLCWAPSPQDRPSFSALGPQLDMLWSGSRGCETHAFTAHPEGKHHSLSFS
Kind of series: Biochemical JAK kinase assay (LanthaScreen), JAK3. The conditions noted are these: converted from pIC50 by Cheng-Prusoff; ATP at Km 1.6 μM; read-out: JAK 3 (pKi) (converted). As to the method: (§1) Assay 1: Biochemical JAK and Tyk2 Kinase Assays A panel of four LanthaScreen JAK biochemical assays (JAK1, 2, 3 and Tyk2) were carried in a common kinase reaction buffer (50 mM HEPES, pH 7.5, 0.01% Brij-35, 10 mM MgCl2, and 1 mM EGTA). Recombinant GST-tagged JAK enzymes and a GFP-tagged STAT1 peptide substrate were obtained from Life Technologies. Serially or discretely diluted compounds were pre-incubated with each of the four JAK enzymes and the substrate in white 384-well microplates (Corning) at ambient temperature for 1 h. ATP was subsequently added to initiate the kinase reactions in 10 μL total volume, with 1% DMSO. […] The plates were allowed to incubate at ambient temperature for 1 h before being read on the EnVision reader (Perkin Elmer). Emission ratio signals (520 nm/495 nm) were recorded and utilized to calculate the percent inhibition values based on DMSO and background controls. For dose-response analysis, percent inhibition data were plotted vs. compound concentrations, and IC50 values were determined from a 4-parameter robust fit model with the Prism software (GraphPad Software). Results were expressed as pIC50 (negative logarithm of IC50) and subsequently converted to pKi (negative logarithm of dissociation constant, Ki) using the Cheng-Prusoff equation.
On the technique in general: Time-resolved FRET reads energy transfer from a long-lived donor to a nearby acceptor.

For another series, the target named is T2, JAK2 (Homo sapiens, UniProt O60674).
T2 construct: GST; purchased Life Technologies
T2 sequence (O60674 whole entry): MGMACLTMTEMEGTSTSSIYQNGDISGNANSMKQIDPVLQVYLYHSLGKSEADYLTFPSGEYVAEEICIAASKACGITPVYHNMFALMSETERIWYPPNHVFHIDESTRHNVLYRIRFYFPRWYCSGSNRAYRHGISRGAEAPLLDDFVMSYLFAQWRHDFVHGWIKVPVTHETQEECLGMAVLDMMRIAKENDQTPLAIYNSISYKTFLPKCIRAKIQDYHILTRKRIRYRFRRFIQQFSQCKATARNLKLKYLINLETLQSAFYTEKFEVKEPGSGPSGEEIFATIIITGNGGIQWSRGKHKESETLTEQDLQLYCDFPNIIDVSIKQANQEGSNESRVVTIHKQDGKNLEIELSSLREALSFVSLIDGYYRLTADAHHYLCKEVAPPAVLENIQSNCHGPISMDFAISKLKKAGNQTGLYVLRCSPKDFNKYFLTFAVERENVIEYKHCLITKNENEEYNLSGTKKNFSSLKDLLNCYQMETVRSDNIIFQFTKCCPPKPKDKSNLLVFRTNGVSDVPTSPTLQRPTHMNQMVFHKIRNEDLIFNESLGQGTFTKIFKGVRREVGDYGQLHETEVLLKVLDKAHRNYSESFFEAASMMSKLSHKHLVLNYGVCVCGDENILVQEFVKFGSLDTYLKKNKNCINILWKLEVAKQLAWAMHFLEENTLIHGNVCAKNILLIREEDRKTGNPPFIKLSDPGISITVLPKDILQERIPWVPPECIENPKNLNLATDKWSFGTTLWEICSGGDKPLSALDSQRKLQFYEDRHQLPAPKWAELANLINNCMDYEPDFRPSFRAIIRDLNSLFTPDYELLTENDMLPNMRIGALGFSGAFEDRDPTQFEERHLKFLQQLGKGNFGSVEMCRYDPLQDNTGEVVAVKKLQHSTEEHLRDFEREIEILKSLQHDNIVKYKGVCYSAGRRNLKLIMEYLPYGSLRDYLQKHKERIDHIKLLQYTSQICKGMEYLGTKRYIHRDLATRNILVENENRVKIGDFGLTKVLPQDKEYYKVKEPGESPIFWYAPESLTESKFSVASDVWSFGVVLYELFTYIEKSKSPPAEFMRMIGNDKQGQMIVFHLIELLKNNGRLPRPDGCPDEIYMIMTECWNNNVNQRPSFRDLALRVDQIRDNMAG
Description: Biochemical JAK kinase assay (LanthaScreen), JAK2. The conditions noted are these: converted from pIC50 by Cheng-Prusoff; ATP at Km 3 μM; read-out: JAK 2 (pKi) (converted). As to the method: as §1

Series [1] concerns BEAS-2B human lung epithelial cells. Type of series: cell-based. The conditions noted are these: 48 h. The protocol: Assay 3: Cytotoxicity Assay A CellTiter-Glo luminescent cell viability/cytotoxicity assay was carried out in BEAS-2B human lung epithelial cells (ATCC) under the normal growth condition. […] On day 1 of the assay, cells were seeded at a 500 cells/well density in white 384-well tissue culture plates (Corning) with 25 μL medium, and were allowed to adhere overnight in the incubator. On day 2 of the assay, 5 μL of medium containing dose-responses of test compounds was added, and incubated at 37° C. for 48 h. 30 μL of CellTiter-Glo detection solution (Promega) was subsequently added, mixed on an orbital shaker for 5 min, and incubated for additional 10 min before being read on the EnVision reader. Luminescence signals were recorded and percent DMSO control values were calculated. For dose-response analysis, percent DMSO control data were plotted vs. compound concentrations to derive dose-response curves by line connecting each data point. […] Results were expressed as the negative logarithm of the CC15 value, pCC15. […] The pCC15 for compound (I) was 5.36.

Turning to `CCS(=O)(=O)N1[C@@H]2CCC[C@H]1C[C@H](N(C)c1nc(CO)c(F)c(Nc3cc(C)[nH]n3)n1)C2` [Compound (I), (2-(((1R,3s,5S)-9-(ethylsulfonyl)-9-azabicyclo[3.3.1]nonan-3-yl)(methyl)amino)-5-fluoro-6-((5-methyl-1H-pyrazol-3-yl)amino)pyrimidin-4-yl)methanol], the microsomal CLint – broadly, a measure of how fast metabolising enzymes remove a compound, apart from limits set by blood flow – at 0.1 μM in “in vitro” (pH 7.4, HLM Clint) is 136 µL/min/mg; in “in vitro” (pH 7.4, clearance class in human microsomes), > 50 µL/min/mg. In addition, the results for the Ki on JAK3 and on JAK2 were 0.794 nM and 0.0631 nM, respectively. In series [1], this compound gave a pCC15 of 5.36.
